Where a name gives a salt, the structure may show the parent alone.
How the values were obtained:
Conditions in all cases: exposure time: 15 min to 3 h acute
Dugesia japonica [1] = test: loss of heat-induced scrunching incidence (% planarians (vehicle-normalised)); higher = higher incidence or increase relative to vehicle control
In short: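 D. japonica planarians (fasted 5–7 days), one per well in 200 μL in sealed 48-well plates, were exposed to at least 5 concentrations (n = 24 per concentration, technical triplicates). They were tested within 15 minutes–3 hours for scrunching in response to a noxious heat stimulus; worms that crawled out were excluded. The value is the incidence ×100 of worms without scrunching, normalised to in-plate vehicle controls, with negatives set to 0.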

Dugesia japonica [2] = test: C-shape incidence (% planarians (vehicle-normalised)); higher = higher incidence or increase relative to vehicle control
In short: (§1)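 A blinded researcher manually scored planarian body shapes (contraction, C-shape, corkscrew, hyperkinesis), leaving out any worm that crawled out of its well. The D. japonica worms had been fasted 5–7 days, kept one per well in 200 μL in sealed 48-well plates, and screened within 15 minutes–3 hours of exposure to at least 5 concentrations. Values give shape incidence ×100, normalised to vehicle controls in the same plate, with negatives set to 0.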

Dugesia japonica [3] = test: crawl-out incidence (% planarians); higher = higher incidence or increase relative to vehicle control
Dugesia japonica [4] = test: resting fraction in dark vs vehicle (difference in fraction x100 vs vehicle); higher = higher incidence or increase relative to vehicle control
In short: (§2)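 Automated tracking of intact, fasted Dugesia japonica, one worm per well of a 48-well plate in 200 μL, was used to measure the resting fraction in the dark or under blue light. Testing took place 15 min to 3 h after exposure in 0.5% DMSO or water vehicle. Each plate held eight worms per concentration, run in technical triplicate. For each worm, the plate's vehicle median was subtracted and the difference multiplied by 100; the median of these values is reported, with worms that crawled out excluded.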

Dugesia japonica [5] = test: total locomotor bursts minus vehicle (bursts difference vs vehicle); higher = higher incidence or increase relative to vehicle control
In short: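 Fasted Dugesia japonica planarians were placed one per well in a sealed 48-well plate with 200 μL solution and exposed to half- or quarter-log concentration series, with 0.5% DMSO or water as vehicle. Testing took place 15 min–3 h after exposure, with technical triplicates totalling n = 24. Total locomotor bursts, an unstimulated behaviour, were scored by image-based object tracking, and the plate vehicle-control median was subtracted from each planarian's value without scaling. The reported value is the median normalised response, excluding worms that crawled out.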

Dugesia japonica [6] = test: corkscrew incidence (% planarians (vehicle-normalised)); higher = higher incidence or increase relative to vehicle control
In short: as §1

Dugesia japonica [7] = test: contracted body shape incidence (% planarians (vehicle-normalised)); higher = higher incidence or increase relative to vehicle control
In short: as §1

Dugesia japonica [8] = test: any abnormal body shape incidence (% planarians (vehicle-normalised)); higher = higher incidence or increase relative to vehicle control
In short: as §1

Dugesia japonica [9] = test: pharynx extrusion incidence (% planarians (vehicle-normalised)); higher = higher incidence or increase relative to vehicle control
In short: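 Blind manual scoring of pharynx extrusion, treated as a body-shape category, was done on intact, fasted Dugesia japonica. Worms sat singly in 200 μL per well of a 48-well plate, in water or 0.5% DMSO vehicle, and were tested between 15 min and 3 h after exposure. Eight worms per concentration per plate were run in technical triplicate (n = 24), and any that crawled out were excluded. The incidence was normalised to in-plate vehicle controls, with negatives set to 0.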

Dugesia japonica [10] = test: resting fraction in blue light vs vehicle (difference in fraction x100 vs vehicle); higher = higher incidence or increase relative to vehicle control
In short: as §2

Dugesia japonica [11] = test: stickiness incidence (% planarians (vehicle-normalised)); higher = higher incidence or increase relative to vehicle control
In short: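 Fasted Dugesia japonica planarians, one per well of a sealed 48-well plate in 200 μL solution, were tested 15 min–3 h after exposure to half- or quarter-log concentration series. The vehicle was 0.5% DMSO or water. Stickiness was scored as a binary endpoint in the Stickiness assay, pooling technical triplicates (n = 24). Incidence was normalised to in-plate vehicle incidence, with negatives set to 0, and multiplied by 100. Crawled-out worms were excluded.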

Dugesia japonica [12] = test: loss of phototaxis incidence (% planarians (vehicle-normalised)); higher = higher incidence or increase relative to vehicle control
In short: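 Automated object tracking was used to score intact, fasted Dugesia japonica for loss of phototaxis as a yes/no outcome. Worms sat one per well in 200 μL on 48-well plates and were tested 15 min to 3 h after exposure in 0.5% DMSO or water vehicle. The incidence rate ×100 was normalised to in-plate vehicle controls, negatives were set to 0, and worms that crawled out were left out.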

Dugesia japonica [13] = test: speed in dark vs vehicle (% change vs vehicle); higher = higher incidence or increase relative to vehicle control
In short: (§3)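 Automated tracking recorded crawling speed of intact, fasted Dugesia japonica in the dark or under blue light, and values are reported as the median percent change relative to the plate's vehicle median. Worms sat singly in wells of a 48-well plate in 200 μL and were tested 15 min to 3 h after exposure in 0.5% DMSO or water vehicle. Worms that crawled out were left out, with eight per concentration per plate in technical triplicate (n = 24).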

Dugesia japonica [14] = test: speed first 30 s blue light vs vehicle (% change vs vehicle); higher = higher incidence or increase relative to vehicle control
In short: as §3

Dugesia japonica [15] = test: anxiety (time in outer well region) vs vehicle (% change vs vehicle); higher = higher incidence or increase relative to vehicle control
In short: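 D. japonica planarians (fasted 5–7 days), one per well in 200 μL in sealed 48-well plates, were exposed to at least 5 concentrations (n = 24 per concentration, technical triplicates) and screened within 15 minutes–3 hours. Time spent in the outer portion of the well was measured by object tracking in MATLAB or Python; worms that crawled out were excluded. Each worm's response was divided by, or reduced by, the plate vehicle median and multiplied by 100. The value is the median.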

Dugesia japonica [16] = test: hyperkinesis incidence (% planarians (vehicle-normalised)); higher = higher incidence or increase relative to vehicle control
In short: as §1

Dugesia japonica [17] = test: noxious heat displacement strength vs vehicle (% change vs vehicle); higher = higher incidence or increase relative to vehicle control
In short: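 Displacement strength under noxious heat was measured in the scrunching assay on intact, fasted Dugesia japonica, one per well of a 48-well plate in 200 μL. Worms were tested 15 min to 3 h after exposure in 0.5% DMSO or water vehicle, using automated object tracking. Eight worms per concentration per plate were run in technical triplicate (n = 24). Each worm was normalised to the plate's vehicle median, and the value is the median percent change; worms that crawled out were excluded.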

Dugesia japonica [18] = test: speed second 30 s blue light vs vehicle (% change vs vehicle); higher = higher incidence or increase relative to vehicle control
In short: as §3

Row | SMILES | loss of heat-induced scrunching incidence (Dugesia japonica [1]) | C-shape incidence (Dugesia japonica [2]) | crawl-out incidence (Dugesia japonica [3]) | resting fraction in dark (Dugesia japonica [4]) | total locomotor bursts minus vehicle (Dugesia japonica [5]) | corkscrew incidence (Dugesia japonica [6]) | contracted body shape incidence (Dugesia japonica [7]) | any abnormal body shape incidence (Dugesia japonica [8]) | pharynx extrusion incidence (Dugesia japonica [9]) | resting fraction in blue light (Dugesia japonica [10]) | stickiness incidence (Dugesia japonica [11]) | loss of phototaxis incidence (Dugesia japonica [12]) | speed in dark (Dugesia japonica [13]) | speed first 30 s blue light (Dugesia japonica [14]) | anxiety (Dugesia japonica [15]) | hyperkinesis incidence (Dugesia japonica [16]) | noxious heat displacement strength (Dugesia japonica [17]) | speed second 30 s blue light (Dugesia japonica [18])
1 | CN1CCN(CCCN2c3ccccc3Sc3ccc(Cl)cc32)CC1 [prochloroperazine] (31.6 µM) | 65.2 | 34.8 | 20.8 | 60.9 | -3 | 4.35 | 21.7 | 73.9 | 0 | 75.3 | ≤ 0 | 63.2 | -65.5 | -89.8 | 24 | 26.1 | -47.9 | -83.6
2 | CN1CCN(C2=Nc3cc(Cl)ccc3Nc3ccccc32)CC1 [clozapine] (10 µM) | 75 | 4.17 | 0 | 73.9 | 15.2 | 4.17 | 8.33 | 58.3 | 0 | 70.9 | 25 | 29.2 | -75.7 | -89.8 | -100 | 54.2 | -39.6 | -90.5
3 | Cc1ncc2n1-c1ccc(Cl)cc1C(c1ccccc1F)=NC2 [midazolam] (31.6 µM) | 8.33 | 0 | 0 | -0.404 | -0.5 | 0 | 0 | 20.8 | 0 | -0.5 | ≤ 0 | ≤ 0 | 8.87 | -1.82 | 3.09 | 20.8 | -27.4 | 23.1
4 | CNCCC(Oc1ccc(C(F)(F)F)cc1)c1ccccc1 (stereo unspecified) [fluoxetine hydrochloride] (31.6 µM) | 8.33 | 0 | 0 | 10.3 | 9 | 0 | 0 | 0 | 0 | 6.49 | ≤ 0 | 16.7 | -58.6 | -70.9 | 10.3 | 0 | -49.6 | -66.4
5 | CC(NC(C)(C)C)C(=O)c1cccc(Cl)c1 (stereo unspecified) [bupropion] (100 µM) | 12.5 | 0 | 0 | 25.7 | -1 | 0 | 0 | 0 | 0 | -3.29 | 13 | 4.17 | -35.4 | 9.9 | 3.91 | 0 | -32.4 | 20.6
6 | [Cl-].[Na+] [sodium chloride] (3470 µM) | 12.5 | 0 | 4.17 | 2.94 | 0.5 | 0 | 0 | 0 | 0 | -8.67 | ≤ 0 | ≤ 0 | -7.38 | 18.8 | -4.03 | 0 | -5.24 | -2.5
7 | O=C1CCc2ccc(OCCCCN3CCN(c4cccc(Cl)c4Cl)CC3)cc2N1 [aripiprazole] (3.16 µM) | 4.17 | 0 | 0 | -2.43 | -2.5 | 0 | 0 | 4.17 | 0 | 0.05 | ≤ 0 | 45.8 | 27.4 | 18.9 | 0.35 | 4.17 | 0.14 | 8.71
8 | CN1C(=O)CN=C(c2ccccc2)c2cc(Cl)ccc21 [diazepam] (3.16 µM) | 29.2 | 0 | 0 | -5.99 | -3 | 0 | 0 | 0 | 0 | -0.17 | ≤ 0 | 41.7 | 16.7 | 21.1 | -3.35 | 0 | -6.66 | -4.64
9 | CN[C@H]1CC[C@@H](c2ccc(Cl)c(Cl)c2)c2ccccc21 [sertraline hydrochloride] (3.16 µM) | ≤ 0 | 0 | 8.33 | 1.05 | 8 | 0 | 0 | 4.55 | 0 | 4.62 | 4.55 | 18.2 | -20.1 | -25.9 | 15.3 | 4.55 | -5.25 | -31.9
10 | O=C(CCCN1CCC(O)(c2ccc(Br)cc2)CC1)c1ccc(F)cc1 [bromperidol] (3.16 µM) | 47.6 | 4.76 | 33.3 | 24 | 11 | 14.3 | 9.52 | 57.1 | 0 | 28.6 | ≤ 0 | ≤ 0 | -33.9 | -55.1 | -1.33 | 47.6 | -37 | -53.4
11 | CC(NC(C)(C)C)C(=O)c1cccc(Cl)c1 (stereo unspecified) [bupropion] (31.6 µM) | 16.7 | 0 | 0 | 17.5 | -7.5 | 0 | 4.17 | 0 | 0 | 23.4 | ≤ 0 | 20.8 | -1.56 | -59.5 | 2.47 | 0 | -22.3 | -19.4
12 | CNCCC(Oc1ccc(C(F)(F)F)cc1)c1ccccc1 (stereo unspecified) [fluoxetine hydrochloride] (100 µM) | 37.5 | 33.3 | 0 | 70.7 | 15.5 | 0 | 0 | 50 | 0 | 79.5 | ≤ 0 | 37.5 | -65.4 | -90.4 | 7.58 | 29.2 | -80.3 | -89.3
13 | CN1CC(=O)N=C1NC(=O)Nc1cccc(Cl)c1 [fenobam] (178 µM) | ≤ 0 | 0 | 0 | 0.09 | 0.5 | 0 | 0 | 0 | 0 | 0 | ≤ 0 | ≤ 0 | -3.57 | -12.6 | 3.95 | 0 | -42.2 | -18.9
14 | O=C(CCCN1CCC(O)(c2ccc(Cl)cc2)CC1)c1ccc(F)cc1 [haloperidol] (100 µM) | 34.8 | 0 | 4.17 | 48.4 | 25 | 28.6 | 0 | 38.1 | 0 | 30.8 | ≤ 0 | 13 | -66.9 | -69.3 | 1.65 | 19 | -19.3 | -68.8
15 | O=C(CCCN1CC=C(n2c(=O)[nH]c3ccccc32)CC1)c1ccc(F)cc1 [droperidol] (31.6 µM) | 75 | 29.2 | 0 | 86.7 | 12.2 | 4.17 | 70.8 | 95.8 | 0 | 85.4 | 12.5 | 58.3 | -81.9 | -94.6 | -26.3 | 25 | -34 | -94.3
16 | O=C(O)/C=C\C(=O)O [maleic acid] (200 µM) | 33.3 | 0 | 0 | -12.7 | -2 | 0 | 0 | 0 | 0 | -5.42 | 12.5 | ≤ 0 | -20.4 | -32.5 | 23.7 | 0 | -39.3 | -23.8
17 | Cc1ncc2n1-c1ccc(Cl)cc1C(c1ccccc1F)=NC2 [midazolam] (100 µM) | 45.8 | 20.8 | 0 | 59.7 | 28.5 | 0 | 45.8 | 95.8 | 4.17 | 68.2 | 20.8 | 29.2 | -70.7 | -93 | 2.35 | 70.8 | -48.3 | -87.7
